According to article PMC8533363, “Effective Perturbations on the Amplitude and Hysteresis of Erg-Mediated Potassium Current Caused by 1-Octylnonyl 8-[(2-hydroxyethyl)[6-oxo-6(undecyloxy)hexyl]amino]-octanoate (SM-102), a Cationic Lipid” (Biomedicines, 2021):

Target: T1, erg-mediated K+ (Kerg, KV11) channel (Rattus norvegicus, UniProt O08962)
T1 construct: gene Kcnh2; native channel in GH3 pituitary tumor cells
T1 sequence (O08962 1-1163): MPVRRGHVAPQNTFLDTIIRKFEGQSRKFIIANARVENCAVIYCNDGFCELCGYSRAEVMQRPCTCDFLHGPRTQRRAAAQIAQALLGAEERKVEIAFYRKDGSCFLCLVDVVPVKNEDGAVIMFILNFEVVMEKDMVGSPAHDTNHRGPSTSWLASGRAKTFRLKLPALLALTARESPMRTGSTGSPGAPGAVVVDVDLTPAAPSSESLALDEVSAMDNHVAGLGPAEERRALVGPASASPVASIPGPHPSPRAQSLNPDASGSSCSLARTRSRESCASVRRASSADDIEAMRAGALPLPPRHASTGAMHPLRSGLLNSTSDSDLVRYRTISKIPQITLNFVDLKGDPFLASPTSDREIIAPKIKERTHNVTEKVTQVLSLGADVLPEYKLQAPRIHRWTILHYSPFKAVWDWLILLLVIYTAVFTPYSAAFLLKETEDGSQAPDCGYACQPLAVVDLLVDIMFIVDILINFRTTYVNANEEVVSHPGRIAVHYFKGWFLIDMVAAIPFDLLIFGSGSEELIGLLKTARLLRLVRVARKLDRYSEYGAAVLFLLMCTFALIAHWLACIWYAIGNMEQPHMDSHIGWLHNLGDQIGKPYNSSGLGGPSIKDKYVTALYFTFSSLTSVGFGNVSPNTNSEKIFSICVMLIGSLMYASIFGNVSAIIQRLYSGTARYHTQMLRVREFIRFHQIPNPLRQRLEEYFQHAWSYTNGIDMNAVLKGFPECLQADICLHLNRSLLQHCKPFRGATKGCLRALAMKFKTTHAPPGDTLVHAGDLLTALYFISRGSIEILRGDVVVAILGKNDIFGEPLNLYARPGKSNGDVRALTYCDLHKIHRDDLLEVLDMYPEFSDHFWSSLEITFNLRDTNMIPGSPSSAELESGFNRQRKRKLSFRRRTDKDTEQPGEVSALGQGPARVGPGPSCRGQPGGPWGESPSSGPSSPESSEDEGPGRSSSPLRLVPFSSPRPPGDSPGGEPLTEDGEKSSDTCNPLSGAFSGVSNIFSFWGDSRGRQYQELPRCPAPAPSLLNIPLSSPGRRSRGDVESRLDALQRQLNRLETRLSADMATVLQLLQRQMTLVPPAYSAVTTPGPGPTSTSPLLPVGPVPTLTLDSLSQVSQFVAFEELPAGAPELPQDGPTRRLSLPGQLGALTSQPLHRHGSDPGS
Assay: whole-cell patch clamp of native IK(erg) in GH3 cells; concentration-response and deactivation kinetics (KD […])
Assay type: cell-based

CCCCCCCCCCCOC(=O)CCCCCN(CCO)CCCCCCCC(=O)OC(CCCCCCCC)CCCCCCCC [SM-102, 1-octylnonyl 8-[(2-hydroxyethyl)[6-oxo-6-(undecyloxy)hexyl]amino]-octanoate]
IC50: 108 µM
